The results in this text go back to patent US20220106328A1, “HETEROCYCLIC COMPOUNDS” (Hoffmann-La Roche Inc., priority 2019, published 2022).

This test deals with T1, MAGL (Homo sapiens, UniProt Q99685).
T1 sequence (Q99685 1-303): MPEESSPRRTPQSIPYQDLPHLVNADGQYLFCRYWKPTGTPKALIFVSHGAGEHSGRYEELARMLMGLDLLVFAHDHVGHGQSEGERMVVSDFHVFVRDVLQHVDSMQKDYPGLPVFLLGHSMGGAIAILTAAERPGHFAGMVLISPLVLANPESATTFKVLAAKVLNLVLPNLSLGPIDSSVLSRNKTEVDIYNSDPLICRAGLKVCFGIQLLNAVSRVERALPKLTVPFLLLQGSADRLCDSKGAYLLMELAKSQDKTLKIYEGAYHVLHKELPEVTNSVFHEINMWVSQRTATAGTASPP
Kind of test: 2-AG assay (MAGL inhibitory activity; hydrolysis of 2-arachidonoylglycerol to arachidonic acid followed by mass spectrometry). The format is biochemical. Conditions: 8 μM 2-arachidonoylglycerol, 15 min pre-incubation, 30 min incubation at rt, RapidFire MS read-out. How it is done: Compounds were profiled for MAGL inhibitory activity by determining the enzymatic activity by following the hydrolysis of the natural substrate 2-arachidonoylglycerol resulting in arachidonic acid, which can be followed by mass spectrometry. This assay is hereinafter abbreviated “2-AG assay”.
A C18 SPE cartridge (G9205A) was used in an ACN/water liquid setup. […] The activity of the compounds was calculated based on the ratio of intensities [arachidonic acid/d8-arachidonic acid].
Regarding `O=C1CO[C@@H]2CCN(C(=O)N3CC(OCc4ccc(OC(F)(F)F)cc4)C3)C[C@H]2N1` (single isomer, unassigned) [Example 22, (+)- or (−)-trans-6-[3-[[4-(Trifluoromethoxy)phenyl]methoxy]azetidine-1-carbonyl]-4,4a,5,7,8,8a-hexahydropyrido[4,3-b][1,4]oxazin-3-one], the 50% inhibitory concentration (IC50) – broadly, the point on the concentration scale where inhibition reaches its midpoint – amounted to 920 nM. Turning to `CC(C)(C)c1ccc(C2CN(C(=O)N3CCC4OCC(=O)NC4C3)C2)cc1` (single isomer, unassigned) [Example 1, (+)- or (−)-trans-6-[3-(4-tert-Butylphenyl)azetidine-1-carbonyl]-4,4a,5,7,8,8a-hexahydropyrido[4,3-b][1,4]oxazin-3-one], the concentration for half-maximal inhibition (IC50) is 235 nM. For `O=C(N1CC(OCc2ccc(C(F)(F)F)cc2F)C1)N1CC[C@H]2OCCN[C@@H]2C1` (racemic) [Example 31, [3-[[2-Fluoro-4-(trifluoromethyl)phenyl]methoxy]azetidin-1-yl]-[rac-(4aR,8aR)-2,3,4,4a,5,7,8,8a-octahydropyrido[4,3-b][1,4]oxazin-6-yl]methanone] the value was 2010 nM; for `O=C1COC2CCN(C(=O)N3CC(c4ccc(C5(C(F)(F)F)CC5)cc4)C3)CC2N1` (single isomer, unassigned) [Example 4, (−)- or (+)-trans-6-[3-[4-[1-(Trifluoromethyl)cyclopropyl]phenyl]azetidine-1-carbonyl]-4,4a,5,7,8,8a-hexahydropyrido[4,3-b][1,4]oxazin-3-one], 15 nM; for `O=C1CO[C@@H]2CCN(C(=O)N3CCC(C(c4ccc(F)cc4)c4ccc(F)cc4)CC3)C[C@H]2N1` (single isomer, unassigned) [Example 24, (+)- or (−)-trans-6-[4-[Bis(4-fluorophenyl)methyl]piperidine-1-carbonyl]-4,4a,5,7,8,8a-hexahydropyrido[4,3-b][1,4]oxazin-3-one], 208 nM. The figure for `O=C1COC2CCN(C(=O)N3CC(OCc4ccc(C(F)(F)F)cc4F)C3)CC2N1` (single isomer, unassigned) [Example 5, (+)- or (−)-trans-6-[3-[[2-Fluoro-4-(trifluoromethyl)phenyl]methoxy]azetidine-1-carbonyl]-4,4a,5,7,8,8a-hexahydropyrido[4,3-b][1,4]oxazin-3-one] is 327 nM; for `O=C1CO[C@H]2CCN(C(=O)N3CC(c4ccc(CC(F)(F)F)cc4)C3)C[C@@H]2N1` (single isomer, unassigned) [Example 16, (−)- or (+)-trans-6-[3-[4-(2,2,2-Trifluoroethyl)phenyl]azetidine-1-carbonyl]-4,4a,5,7,8,8a-hexahydropyrido[4,3-b][1,4]oxazin-3-one] it is 58 nM. With `O=C1CO[C@@H]2CCN(C(=O)N3CC(OCc4ccc(C(F)(F)F)cc4Cl)C3)C[C@H]2N1` (single isomer, unassigned) [Example 20, (+)- or (−)-trans-6-[3-[[2-Chloro-4-(trifluoromethyl)phenyl]methoxy]azetidine-1-carbonyl]-4,4a,5,7,8,8a-hexahydropyrido[4,3-b][1,4]oxazin-3-one], the concentration for half-maximal inhibition (IC50) is 220 nM. For `O=C1CO[C@H]2CCN(C(=O)N3CC(c4ccc(Oc5ccccc5Cl)nc4)C3)C[C@@H]2N1` (single isomer, unassigned) [Example 19, (−)- or (+)-trans-6-[3-[6-(2-Chlorophenoxy)-3-pyridyl]azetidine-1-carbonyl]-4,4a,5,7,8,8a-hexahydropyrido[4,3-b][1,4]oxazin-3-one] the value was 32 nM; for `O=C1CO[C@H]2CCN(C(=O)N3CC4(CC(Cc5ccc(F)cc5F)C4)C3)C[C@@H]2N1` (single isomer, unassigned) [Example 18, (−)- or (+)-trans-6-[6-[(2,4-Difluorophenyl)methyl]-2-azaspiro[3.3]heptane-2-carbonyl]-4,4a,5,7,8,8a-hexahydropyrido[4,3-b][1,4]oxazin-3-one], 12 nM; for `O=C1CO[C@H]2CCN(C(=O)N3CC(c4ccc(-c5ccc(F)cc5F)cc4)C3)C[C@@H]2N1` (single isomer, unassigned) [Example 14, (−)- or (+)-trans-6-[3-[4-(2,4-Difluorophenyl)phenyl]azetidine-1-carbonyl]-4,4a,5,7,8,8a-hexahydropyrido[4,3-b][1,4]oxazin-3-one], 28 nM.
